Bases are written 5' to 3'; sugars and linkages follow in the same order, as letters with counts (s phosphorothioate, o phosphodiester; PS: all linkages phosphorothioate). The collection does not say whether C is 5-methylated. l = locked nucleic acid (LNA); d = 2'-deoxy (DNA)
Biological target: Tau
Experiment: rat primary cortical neurons, FLIPR, 25 uM ASO

Row | Sequence | calcium oscillation score
1 | CCGAATTTACACCCAA (sugars l2 d10 l4, PS) | 79.1 % of control
2 | CCGCCTTTAGTGATTACAGG (sugars l3 d14 l3, PS) | 4.03 % of control
3 | CCGTGGTCTGTCTT (sugars l3 d8 l3, PS) | 20.9 % of control
4 | CCGTGGTCTGTCTTGG (sugars l3 d10 l3, PS) | 42.2 % of control
5 | CCTAAAGTCCCAGGTC (sugars l3 d10 l3, PS) | 62.9 % of control
6 | CCTAATAAAAACAATACTA (sugars l4 d11 l4, PS) | 62.3 % of control
7 | CCTAATCCTGTGCT (sugars l3 d8 l3, PS) | 62.6 % of control
8 | CCTAATCCTGTGCTT (sugars l3 d9 l3, PS) | 58.2 % of control
9 | CCTAATGAGCCACACT (sugars l3 d10 l3, PS) | 92.6 % of control
10 | CCTACTTTATTCCCTTA (sugars l2 d12 l3, PS) | 95.9 % of control
11 | CCTACTTTATTCCCTTAA (sugars l2 d12 l4, PS) | 86.8 % of control
12 | CCTAGAACACAACACAC (sugars l3 d10 l4, PS) | 58.6 % of control
13 | CCTATGCCAATTATTT (sugars l4 d8 l4, PS) | 68.2 % of control
14 | CCTCACTTTACACATTAAAT (sugars l4 d14 l2, PS) | 64.1 % of control
15 | CCTCCACCCTTACACA (sugars l1 d13 l2, PS) | 58.9 % of control
16 | CCTCCACCCTTACACAT (sugars l2 d13 l2, PS) | 55.6 % of control
17 | CCTCCATTAAGAACCTA (sugars l2 d12 l3, PS) | 90.1 % of control
18 | CCTCCCACCTATCAGTCA (sugars l1 d15 l2, PS) | 46.2 % of control
19 | CCTCCCTTTAATGCCAGGCC (sugars l3 d14 l3, PS) | 34.2 % of control
20 | CCTCCTAGAACACAACA (sugars l3 d12 l2, PS) | 57 % of control
21 | CCTCCTGGTTTATGATGGAT (sugars l3 d14 l3, PS) | 58.3 % of control
22 | CCTCCTTAACCATTAG (sugars l2 d11 l3, PS) | 54.5 % of control

Row | Sequence | calcium oscillation score
23 | CCTCGTCAGCTAGCGT (sugars l3 d10 l3, PS) | 76 % of control
24 | CCTCTAGTTTTACCTA (sugars l2 d11 l3, PS) | 58.8 % of control
25 | CCTCTAGTTTTACCTAA (sugars l2 d11 l4, PS) | 72.9 % of control
26 | CCTCTCCTTTAAGAAAA (sugars l4 d10 l3, PS) | 74.9 % of control
27 | CCTCTGTCTTAACTTTT (sugars l3 d10 l4, PS) | 97 % of control
28 | CCTCTTCCACTACAAG (sugars l2 d12 l2, PS) | 57.8 % of control
29 | CCTCTTCCACTACAAGCT (sugars l2 d14 l2, PS) | 49.1 % of control
30 | CCTGAAACACCTTTTTCC (sugars l2 d14 l2, PS) | 71.1 % of control
31 | CCTGATCACAAACCCT (sugars l3 d10 l3, PS) | 100 % of control
32 | CCTGGTGGCGTTGGCC (sugars l3 d10 l3, PS) | 32.6 % of control
33 | CCTGGTTTATGATGGA (sugars l3 d10 l3, PS) | 26.1 % of control
34 | CCTGGTTTATGATGGATGTT (sugars l3 d14 l3, PS) | 0 % of control
35 | CCTGTCTCAAACACCTA (sugars l2 d12 l3, PS) | 60.6 % of control
36 | CCTTAAAGCTCCAACA (sugars l4 d10 l2, PS) | 94.6 % of control
37 | CCTTAATTTCACCC (sugars l3 d8 l3, PS) | 66.7 % of control
38 | CCTTAATTTCACCCT (sugars l3 d9 l3, PS) | 140 % of control
39 | CCTTAATTTCACCCTC (sugars l3 d10 l3, PS) | 132 % of control
40 | CCTTACCACTTTCAGG (sugars l3 d10 l3, PS) | 111 % of control
41 | CCTTACTTTCTACTCAAT (sugars l2 d12 l4, PS) | 62.1 % of control
42 | CCTTACTTTCTACTCAATT (sugars l3 d14 l2, PS) | 48.1 % of control
43 | CCTTGAAGTCAAGCTTCTCA (sugars l3 d14 l3, PS) | 66.4 % of control
44 | CCTTGATCATATTTGTGGCA (sugars l3 d14 l3, PS) | 28.6 % of control

Row | Sequence | calcium oscillation score
45 | CCTTTGAAAGTCCTTT (sugars l2 d11 l3, PS) | 100 % of control
46 | CCTTTGAAAGTCCTTT (sugars l2 d12 l2, PS) | 96.4 % of control
47 | CCTTTGAAAGTCCTTT (sugars l3 d9 l4, PS) | 90.5 % of control
48 | CCTTTGAAAGTCCTTT (sugars l3 d11 l2, PS) | 121 % of control
49 | CCTTTGAAAGTCCTTT (sugars l4 d8 l4, PS) | 106 % of control
50 | CCTTTGAAAGTCCTTT (sugars l4 d9 l3, PS) | 96.4 % of control
51 | CCTTTGTAATTCCTTCTC (sugars l3 d13 l2, PS) | 53.4 % of control
52 | CCTTTTAAAAGAACCCT (sugars l3 d11 l3, PS) | 96 % of control
53 | CCTTTTAATTCATTAG (sugars l4 d8 l4, PS) | 59 % of control
54 | CCTTTTCATGTTAAATC (sugars l4 d9 l4, PS) | 86.6 % of control
55 | CCTTTTCTACTCTACTC (sugars l3 d12 l2, PS) | 70.9 % of control
56 | CCTTTTCTACTCTACTCT (sugars l3 d13 l2, PS) | 63.3 % of control
57 | CCTTTTCTACTCTACTCTC (sugars l3 d14 l2, PS) | 55.7 % of control
58 | CCTTTTCTACTCTACTCTCA (sugars l2 d16 l2, PS) | 62.1 % of control
59 | CCTTTTTATTTCCTCCGC (sugars l3 d13 l2, PS) | 40.1 % of control
60 | CCTTTTTCCATCTTACTAAT (sugars l3 d14 l3, PS) | 54.7 % of control
61 | CGAAACCAAGGTCCCACCAG (sugars l3 d14 l3, PS) | 40.4 % of control
62 | CGAACTGCGAGGAGCA (sugars l3 d10 l3, PS) | 2.71 % of control
63 | CGAACTGCGAGGAGCAGCTG (sugars l3 d14 l3, PS) | 0 % of control
64 | CGAATTACCTAACCTC (sugars l3 d9 l4, PS) | 88.2 % of control
65 | CGACTTATCTATCCAT (sugars l4 d9 l3, PS) | 46.2 % of control
66 | CGACTTATCTATCCATC (sugars l4 d10 l3, PS) | 50.5 % of control

Row | Sequence | calcium oscillation score
67 | CGACTTATCTATCCATCT (sugars l2 d12 l4, PS) | 45.8 % of control
68 | CGACTTGTACACGATC (sugars l3 d10 l3, PS) | 48.9 % of control
69 | CGAGCCAAAGCCGA (sugars l3 d8 l3, PS) | 116 % of control
70 | CGAGTCTACCATGTCG (sugars l3 d10 l3, PS) | 103 % of control
71 | CGAGTCTACCATGTCGATGC (sugars l3 d14 l3, PS) | 78.5 % of control
72 | CGATGCTGCCGGTGGA (sugars l3 d10 l3, PS) | 2.61 % of control
73 | CGCACCAGGAACCTTCCAGA (sugars l3 d14 l3, PS) | 28.2 % of control
74 | CGCAGGCGCGAGCA (sugars l3 d8 l3, PS) | 102 % of control
75 | CGCAGGCGCGAGCAGC (sugars l3 d10 l3, PS) | 20.7 % of control
76 | CGCCAGGGACGTGGGTGATA (sugars l3 d14 l3, PS) | 0 % of control
77 | CGCCCCACTTTTAATT (sugars l3 d11 l2, PS) | 58.3 % of control
78 | CGCCCCACTTTTAATTA (sugars l2 d12 l3, PS) | 77.2 % of control
79 | CGCCTTTAGTGATTACAGGC (sugars l3 d14 l3, PS) | 20.2 % of control
80 | CGCGGAAGGTCAGCTT (sugars l3 d10 l3, PS) | 33.3 % of control
81 | CGCGGAAGGTCAGCTTGTGG (sugars l3 d14 l3, PS) | 0 % of control
82 | CGCTTCCAGTCCCG (sugars l3 d8 l3, PS) | 107 % of control
83 | CGCTTCCAGTCCCGTC (sugars l3 d10 l3, PS) | 15.7 % of control
84 | CGGAAGGTCAGCTTGT (sugars l3 d10 l3, PS) | 32.5 % of control
85 | CGGAAGGTCAGCTTGTGGGT (sugars l3 d14 l3, PS) | 14.5 % of control
86 | CGGCGCAGGCGCGAGC (sugars l3 d10 l3, PS) | 2.71 % of control
87 | CGGTAGGAAAGACATTTCCC (sugars l3 d14 l3, PS) | 10.1 % of control
88 | CGTCAGCTAGCGTGGC (sugars l3 d10 l3, PS) | 117 % of control

Row | Sequence | calcium oscillation score
89 | CGTCCCAGCGTGATCTTCCA (sugars l4 d11 l5, PS) | 42.6 % of control
90 | CGTCCCAGCGTGATCTTCCA (sugars l5 d11 l4, PS) | 36.2 % of control
91 | CGTCCCAGCGTGATCTTCCA (sugars ldlllddddddddddlldll, PS) | 38.3 % of control
92 | CGTCCCAGCGTGATCTTCCA (sugars lldllddddddddddlldll, PS) | 59.6 % of control
93 | CGTCTTTGCTTTTACTGACC (sugars l3 d14 l3, PS) | 29.6 % of control
94 | CGTGATCTTCCATC (sugars l3 d8 l3, PS) | 85.1 % of control
95 | CGTGATCTTCCATCAC (sugars l3 d10 l3, PS) | 127 % of control
96 | CGTGGGTGATATTGTC (sugars l3 d10 l3, PS) | 0 % of control
97 | CGTGGGTGATATTGTCCAGG (sugars l3 d14 l3, PS) | 0 % of control
98 | CGTGGTCTGTCTTG (sugars l3 d8 l3, PS) | 0 % of control
99 | CGTGGTCTGTCTTGGC (sugars l3 d10 l3, PS) | 19 % of control
100 | CGTTCTCGCGGAAGGT (sugars l3 d10 l3, PS) | 13 % of control
101 | CGTTGCTAAGATCCAG (sugars l3 d10 l3, PS) | 9.04 % of control
102 | CGTTTTCTTACCACCC (sugars l2 d12 l2, PS) | 46.2 % of control
103 | CTAAACCATGATCTTA (sugars l3 d10 l3, PS) | 21.1 % of control
104 | CTAAAGTCCCAGGTC (sugars l3 d9 l3, PS) | 40.5 % of control
105 | CTAAAGTCCCAGGTCT (sugars l3 d10 l3, PS) | 59.2 % of control
106 | CTAAGCACTTTACCCATC (sugars l3 d13 l2, PS) | 97.6 % of control
107 | CTAAGGCAAGGCCTAT (sugars l3 d10 l3, PS) | 83 % of control
108 | CTAATATCCTTGCTATC (sugars l3 d10 l4, PS) | 55.7 % of control
109 | CTAATCCTGTGCTT (sugars l3 d8 l3, PS) | 26.1 % of control
110 | CTAATCCTGTGCTTC (sugars l3 d9 l3, PS) | 73.1 % of control

— the OligoGym collection
